Laboratory results reported in US20060088874A1, “Methods and kits for detecting mutations” (Promega Corporation, priority 2004, published 2006).
Where two headings read alike, the source gives them in different places.

Columns and labels:
[1] = tested on: microsatellite markers in human fibroblast cell line #AG01522
Method: human fibroblast cell line #AG01522 from Coriell Cell Repository were cultured in MEM Eagle-Earle BSS 2× concentration of essential and non-essential amino acids and vitamins with 2 mM L-glutamine, 10% fetal bovine serum, 0.5 Units/ml of penicillin, 0.5 μg/ml of streptomycin. Cell cultures were grown at 37° C. and 5% CO2 under sterile conditions and split at a ratio of 1:5 when cells were confluent by releasing cells with trypsin-EDTA treatment. […] Cells were pelleted and DNA extracted.
Mutant alleles were identified by small-pool PCR as described in Example B above using primer pairs specific for microsatellite markers (Tables 2 and 7) including: (1) mononucleotide repeat markers (NR-21, NR-24, BAT-25, BAT-26 and MONO-27); (2) extended mononucleotide repeat markers (hBAT-51d, hBAT-52a, hBAT-53c, hBAT59a, hBAT-60a and hBAT-62); (3) tetranucleotide repeat markers on autosomal chromosomes (D7S3070, D7S3046, D7S1808, D10S1426 and D3S2432); (4) tri-, tetra- and penta-nucleotide repeats on the Y chromosome (DYS391, DYS389 I, DYS389 II, DYS438, DYS437, DYS19, DYS392, DYS393, DYS390, and DYS385); and (5) penta-nucleotide repeats Penta B, C, D, and E (Bacher, et al. 1999.

[2] = tested on: mtDNA (Δ-mtDNA4977 deletion); assay type: in vivo, C57BL/6 mice; details: old age paraquat-treated group, three mice
Method: […] mice were housed and inbred at the University of Wisconsin, with an average life span ˜30 months. Four groups of three mice were included in the study: 5-month old mice (young control or YC); 5-month old mice treated with paraquat; 24-month old mice (old age); and 24-month old mice treated with paraquat. Paraquat-treated animals received a single intraperitoneal injection of 50 mg/kg body weight dissolved in PBS 24 hours after their last feeding. Each mouse was sacrificed by cervical dislocation.
The entire liver from each mouse was dissected, washed with PBS, placed in a 1.5 ml Ependorf tube, snap frozen in liquid nitrogen, and stored at −80° C. DNA was prepared from the mouse liver tissue by using the DNA-IQ Tissue and Hair Extraction Kit (Promega Corporation, Madison, Wis.) and was quantified using the PicoGreen dsDNA Quantitative Kit (Molecular Probes, Eugene, Oregon) following manufacturers protocols.
Based on the mouse mtDNA sequence, four fluorescence labeled primer pairs were designed to detect both wildtype sequences and mtDNA deletions. […]
Separation and detection of amplified fragments was performed on an ABI PRISM® 3100 Genetic Analyzer following the manufacturer's protocol (Applied Biosystems, Foster City, Calif.). Data was analyzed with the GeneScan and Genotyper computer software packages (Applied Biosystems). […]

[3] = tested on: mononucleotide repeat loci (mBat markers); assay type: in vivo, C57BL/6 mice

SMILES: OO [hydrogen peroxide]
- mutations in extended mononucleotide repeats, Y-STRs and A-rich pentanucleotide repeats ([1]; cells exposed to 0.1 to 1.2 mM hydrogen peroxide for 1 hour, 3 days recovery): Mutations were detected
- mutations in short mononucleotide repeat markers NR-21, NR-24, BAT-25, BAT-26 or MONO-27 ([1]; cells exposed to hydrogen peroxide, 0/1,526 alleles): No mutations

SMILES: C[n+]1ccc(-c2cc[n+](C)cc2)cc1 [Paraquat]
- Δ-mtDNA4977 detected (mice of group) [2]: All three mice in the old age paraquat-treated group showed Δ-mtDNA4977
- Mutation Freq ([3]; mBat-24, Old w/Paraquat): 0.000
- # Mutants ([3]; mBat-24, Old w/Paraquat, 318 alleles): 0
- Mutation Freq ([3]; mBat-24, Young w/ Paraquat): 0.002
- # Mutants ([3]; mBat-24, Young w/ Paraquat, 648 alleles): 1
- Mutation Freq ([3]; mBat-26, Old w/Paraquat): 0.000
- # Mutants ([3]; mBat-26, Old w/Paraquat, 340 alleles): 0
- Mutation Freq ([3]; mBat-26, Young w/ Paraquat): 0.000
- # Mutants ([3]; mBat-26, Young w/ Paraquat, 457 alleles): 0
- Mutation Freq ([3]; mBat-30, Old w/Paraquat): 0.000
- # Mutants ([3]; mBat-30, Old w/Paraquat, 344 alleles): 0
- Mutation Freq ([3]; mBat-30, Young w/ Paraquat): 0.000
- # Mutants ([3]; mBat-30, Young w/ Paraquat, 704 alleles): 0
- Mutation Freq ([3]; mBat-37, Old w/Paraquat): 0.000
- # Mutants ([3]; mBat-37, Old w/Paraquat, 306 alleles): 0
- Mutation Freq ([3]; mBat-37, Young w/ Paraquat): 0.001
- # Mutants ([3]; mBat-37, Young w/ Paraquat, 992 alleles): 1
- Mutation Freq ([3]; mBat-49, Old w/Paraquat): 0.000
- # Mutants ([3]; mBat-49, Old w/Paraquat, 194 alleles): 0
- Mutation Freq ([3]; mBat-51a, Old w/Paraquat): 0.000
- # Mutants ([3]; mBat-51a, Old w/Paraquat, 240 alleles): 0
- Mutation Freq ([3]; mBat-51b, Old w/Paraquat): 0.000
- # Mutants ([3]; mBat-51b, Old w/Paraquat, 186 alleles): 0
- Mutation Freq ([3]; mBat-52, Old w/Paraquat): 0.000
- # Mutants ([3]; mBat-52, Old w/Paraquat, 44 alleles): 0
- Mutation Freq ([3]; mBat-59, Old w/Paraquat): 0.013
- # Mutants ([3]; mBat-59, Old w/Paraquat, 448 alleles): 6
- Mutation Freq ([3]; mBat-59, Young w/ Paraquat): 0
- # Mutants ([3]; mBat-59, Young w/ Paraquat, 636 alleles): 4
- Mutation Freq ([3]; mBat-61a, Old w/Paraquat): 0.005
- # Mutants ([3]; mBat-61a, Old w/Paraquat, 428 alleles): 2
- Mutation Freq ([3]; mBat-64, Old w/Paraquat): 0.019
- # Mutants ([3]; mBat-64, Old w/Paraquat, 412 alleles): 8
- Mutation Freq ([3]; mBat-64, Young w/ Paraquat): 0
- # Mutants ([3]; mBat-64, Young w/ Paraquat, 443 alleles): 1
- Mutation Freq ([3]; mBat-66, Old w/Paraquat): 0.018
- # Mutants ([3]; mBat-66, Old w/Paraquat, 448 alleles): 8
- Mutation Freq ([3]; mBat-66, Young w/ Paraquat): 0
- # Mutants ([3]; mBat-66, Young w/ Paraquat, 592 alleles): 3
- Mutation Freq ([3]; mBat-67, Old w/Paraquat): 0.051
- # Mutants ([3]; mBat-67, Old w/Paraquat, 394 alleles): 20
- Mutation Freq ([3]; mBat-67, Young w/ Paraquat): 0
- # Mutants ([3]; mBat-67, Young w/ Paraquat, 334 alleles): 1
- mutations in loci mBAT-24, mBAT-26, mBat-30, or mBAT-37 ([3]; old paraquat-treated group, out of 1608 alleles): no mutations
- mutations in mononucleotide repeat alleles assayed, loci mBAT-59, mBAT-64, mBAT-66 or mBAT-67 ([3]; paraquat-treated old age group, SP-PCR, (25/1649)): over 1.8%
